Experiments:
Glucocorticoid receptor [1] = target: T1, Glucocorticoid receptor (Homo sapiens, UniProt P04150); test: Agonist activity at human GR expressed in NHDF cells assessed as inhibition of IL-6 production by ELISA relative to Dexamethasone; format: functional, cell-based
T1 sequence (P04150 whole entry): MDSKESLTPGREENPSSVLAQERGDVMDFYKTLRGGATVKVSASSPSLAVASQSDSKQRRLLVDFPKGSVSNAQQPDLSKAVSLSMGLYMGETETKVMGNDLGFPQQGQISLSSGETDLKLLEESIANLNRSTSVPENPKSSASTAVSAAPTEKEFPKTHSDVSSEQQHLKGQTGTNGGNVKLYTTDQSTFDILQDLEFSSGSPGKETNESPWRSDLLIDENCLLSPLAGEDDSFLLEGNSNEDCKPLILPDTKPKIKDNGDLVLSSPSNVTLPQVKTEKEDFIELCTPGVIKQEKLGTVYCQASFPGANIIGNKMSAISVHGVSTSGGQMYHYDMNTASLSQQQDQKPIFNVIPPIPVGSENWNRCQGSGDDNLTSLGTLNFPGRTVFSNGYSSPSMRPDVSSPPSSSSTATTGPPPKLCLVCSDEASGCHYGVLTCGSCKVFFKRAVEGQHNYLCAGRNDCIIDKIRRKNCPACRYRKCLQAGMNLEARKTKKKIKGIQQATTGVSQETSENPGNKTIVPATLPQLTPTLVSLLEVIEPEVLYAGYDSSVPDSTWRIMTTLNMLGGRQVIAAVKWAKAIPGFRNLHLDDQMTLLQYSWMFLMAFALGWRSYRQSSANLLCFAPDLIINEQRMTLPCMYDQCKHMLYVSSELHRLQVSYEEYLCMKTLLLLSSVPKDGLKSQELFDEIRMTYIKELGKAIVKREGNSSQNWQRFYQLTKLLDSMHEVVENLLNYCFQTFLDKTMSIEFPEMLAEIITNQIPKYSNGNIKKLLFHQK

Glucocorticoid receptor [2] = target: T1, Glucocorticoid receptor; test: Displacement of radiolabeled Dexamethasone from GR
Glucocorticoid receptor [3] = target: T1, Glucocorticoid receptor; test: Agonist activity at GR expressed in african green monkey CV1 cells transfected with luciferase gene linked to MMTV promoter assessed as induction of luciferase transactivation activity relative to Dexamethasone; format: functional, cell-based, CV-1
Glucocorticoid receptor [4] = target: T1, Glucocorticoid receptor; test: Agonist activity at GR expressed in IL-1beta- and TNFalpha-stimulated HepG2 cells assessed as inhibition of NFKB- or AP-1 mediated E-selectin transcription by luciferase reporter gene assay relative to Dexamethasone; format: functional, cell-based
[5] = Metabolic stability in CD-1 […] liver microsomes by HPLC-MS/MS; format: ADME, Microsome; conditions: CD-1, liver microsomes
[6] = Metabolic stability in human liver microsomes by HPLC-MS/MS; format: ADME, Microsome
[7] = Selectivity ratio of Ki for GR to Ki for PR
Progesterone receptor = target: T2, Progesterone receptor (Homo sapiens, UniProt P06401); test: Binding affinity to PR
T2 sequence (P06401 whole entry): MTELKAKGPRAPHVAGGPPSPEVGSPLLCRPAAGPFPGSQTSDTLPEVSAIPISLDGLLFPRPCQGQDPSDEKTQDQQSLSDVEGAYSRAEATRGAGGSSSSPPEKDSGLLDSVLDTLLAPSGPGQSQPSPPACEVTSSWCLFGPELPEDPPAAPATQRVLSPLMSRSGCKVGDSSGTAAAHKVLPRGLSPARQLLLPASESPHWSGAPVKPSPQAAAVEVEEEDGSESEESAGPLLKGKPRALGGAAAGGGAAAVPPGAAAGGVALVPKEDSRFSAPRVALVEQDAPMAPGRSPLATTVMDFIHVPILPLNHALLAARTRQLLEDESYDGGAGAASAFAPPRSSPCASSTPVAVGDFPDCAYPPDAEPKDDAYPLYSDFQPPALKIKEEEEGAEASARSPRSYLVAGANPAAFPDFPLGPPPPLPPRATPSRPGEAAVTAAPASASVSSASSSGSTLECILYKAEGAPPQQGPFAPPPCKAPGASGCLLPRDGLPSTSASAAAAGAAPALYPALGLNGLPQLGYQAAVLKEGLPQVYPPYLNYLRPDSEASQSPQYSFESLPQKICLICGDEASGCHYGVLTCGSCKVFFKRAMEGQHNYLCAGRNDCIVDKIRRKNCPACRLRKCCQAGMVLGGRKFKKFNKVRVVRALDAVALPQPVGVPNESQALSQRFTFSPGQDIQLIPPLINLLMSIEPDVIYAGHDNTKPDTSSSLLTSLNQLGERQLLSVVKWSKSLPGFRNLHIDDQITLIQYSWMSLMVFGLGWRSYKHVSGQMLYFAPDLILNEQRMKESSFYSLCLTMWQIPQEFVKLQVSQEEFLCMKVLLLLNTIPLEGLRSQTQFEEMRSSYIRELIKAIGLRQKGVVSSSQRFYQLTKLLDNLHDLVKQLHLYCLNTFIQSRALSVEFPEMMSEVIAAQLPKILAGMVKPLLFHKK

SMILES	IC50 (Glucocorticoid receptor [1]) [nM]	Ki (Glucocorticoid receptor [2]) [nM]	EC50 (Glucocorticoid receptor [3]) [nM]	IC50 (Glucocorticoid receptor [4]) [nM]	half-life [5] [min]	half-life [6] [min]	Ratio Ki [7]	Ki (Progesterone receptor) [nM]
Cc1cc(-c2cccc3cc[nH]c23)c(/C=N/O)c2c1NC(C)(C)[C@H](O)[C@H]2C (racemic)	> 1000	319	105	11	–	–	–	–
CO/N=C/c1c(-c2cccc3cc[nH]c23)cc(C)c2c1[C@H](C)[C@@H](O)C(C)(C)N2 (racemic)	4.2	6.9	0.4	1.7	–	–	–	–
Cc1cc(-c2cccc3cc[nH]c23)c(/C=C/C#N)c2c1NC(C)(C)[C@H](O)[C@H]2C (racemic)	16	16.6	5.7	6.5	–	–	–	–
CCO/N=C/c1c(-c2cccc3cc[nH]c23)cc(C)c2c1[C@H](C)[C@@H](O)C(C)(C)N2 (racemic)	3.4	1.5	0.2	0.9	–	–	–	–
CC(=O)/C=C/c1c(-c2cccc3cc[nH]c23)cc(C)c2c1[C@H](C)[C@@H](O)C(C)(C)N2 (racemic)	> 1000	10.4	112	7.8	–	–	–	–
Cc1cc(-c2cccc3cc[nH]c23)c(/C=N/OC(C)(C)C)c2c1NC(C)(C)[C@H](O)[C@H]2C (racemic)	3.8	6	34	5.5	–	–	–	–
C=Cc1c(-c2cccc3cc[nH]c23)cc2c(c1C)NC(C)(C)[C@H](O)[C@H]2C (racemic)	> 1000	3.1	18	13	–	–	–	–
Cc1cc(-c2cccc3cc[nH]c23)c(/C=N/OCc2ccccc2)c2c1NC(C)(C)[C@H](O)[C@H]2C (racemic)	14.4	3.5	3.7	3.1	–	–	–	–
Cc1c(-c2cccc3cc[nH]c23)cc2c(c1C)NC(C)(C)[C@H](O)[C@H]2C (racemic)	> 1000	38.3	205	42	–	–	–	–
Cc1cc(-c2cccc3cc[nH]c23)c(F)c2c1NC(C)(C)[C@H](O)[C@H]2C (racemic)	7.1	2.3	56	5.9	–	–	–	–
C[C@H]1c2cc(-c3cccc4cc[nH]c34)c(F)c(F)c2NC(C)(C)[C@@H]1O (racemic)	20	2.4	11	7.7	–	–	–	–
C[C@H]1c2c(cc(Cl)c(-c3cccc4cc[nH]c34)c2Cl)NC(C)(C)[C@@H]1O (racemic)	> 1000	157	480	301	–	–	–	–
Cc1cc(-c2cccc3cc[nH]c23)c(C)c2c1NC(C)(C)[C@H](O)[C@H]2C (racemic)	9.3	1.2	0.9	4.7	–	–	–	–
Cc1cc(-c2cccc3cc[nH]c23)c(C#N)c2c1NC(C)(C)[C@H](O)[C@H]2C (racemic)	16	1.3	9.6	5.3	13	13	–	–
C[C@H]1c2c(F)c(-c3cccc4cc[nH]c34)c(F)c(Cl)c2NC(C)(C)[C@@H]1O (racemic)	16	1	1.3	3.9	–	–	–	–
Cc1c(F)c(-c2cccc3cc[nH]c23)cc2c1NC(C)(C)[C@H](O)[C@H]2C (racemic)	4.1	0.9	40	1.7	16	17	–	–
C[C@H]1c2c(Cl)c(-c3cccc4cc[nH]c34)cc(F)c2NC(C)(C)[C@@H]1O (racemic)	14	8	89	17	3.8	15	–	–
CCc1c(-c2cccc3cc[nH]c23)cc(C)c2c1[C@H](C)[C@@H](O)C(C)(C)N2 (racemic)	> 1000	11.7	16	15	–	–	–	–
C[C@H]1c2c(F)c(-c3cccc4cc[nH]c34)c(F)c(F)c2NC(C)(C)[C@@H]1O (racemic)	19	5	16	3.8	–	–	–	–
Cc1c(Cl)c(-c2cccc3cc[nH]c23)cc2c1NC(C)(C)[C@H](O)[C@H]2C (racemic)	26	1.8	36	21	25	21	> 100	190
Cc1cc(-c2cccc3cc[nH]c23)cc2c1NC(C)(C)[C@H](O)[C@H]2C (racemic)	> 1000	9	108	21	–	–	–	–
C=Cc1c(-c2cccc3cc[nH]c23)cc(C)c2c1[C@H](C)[C@@H](O)C(C)(C)N2 (racemic)	> 1000	19.6	40	> 1000	–	–	–	–
Cc1c2c(cc(-c3cccc4cc[nH]c34)c1C(F)(F)F)[C@H](C)[C@@H](O)C(C)(C)N2 (racemic)	> 1000	106	> 1000	> 1000	–	–	–	–
Cc1cc(-c2cccc3cc[nH]c23)c(Cl)c2c1NC(C)(C)[C@H](O)[C@H]2C (racemic)	–	–	–	–	3.3	4.7	–	–

Reference: ChEMBL document CHEMBL1681726, “Discovery of orally available tetrahydroquinoline-based glucocorticoid receptor agonists” (Bioorg Med Chem Lett, 2011)
